# Data: publication PMC5601486, “Identification of 4-phenylquinolin-2(1H)-one as a specific allosteric inhibitor of Akt” (Scientific Reports, 2017)
# How the values were obtained:
# Akt-PIP3 association = system: T1, Akt-PIP3 association; assay: PIP3-Akt pull-down assay; format: binding; conditions: inactive Akt, PIP3 beads
# T1 construct: purchased Millipore 14-279
# Procedure: according to the method reported previously6. Briefly, the lipids dissolved in methanol/chloroform were mixed at desired proportions and dried with a N2 steam.
# The lipid mixture was redissolved in 2 mL cyclohexane containing 75 μM BHT (2,6-di-tert-butyl-p-cresol) and lyophilized under vacuum. Unilamellar vesicles were obtained by reconstituting the dried sample with 1 mL of PBS (pH 7.4) containing 50 μM DTPA (diethylenetriamine pentaacetic acid) followed by extrusion with 0.1 μm polycarbonate membrane (Corning, Inc.). For in vitro phosphorylation of Akt, 1 μL […]
# mixture was resolved on SDS gel followed by western blot analysis.
# The assay was performed using a protocol published previously7.
# (50 ng) in PBS containing 400 ng/mL BSA was incubated with inhibitor G7 or a PI analog (EMD Millipore, #124005) for 2 hr at 4 °C. 25 µL PIP3 beads (Echelon, #P-B345a) was added to the sample and incubated overnight at 4 °C. The beads were washed with washing buffer containing 10 mM HEPES (pH 7.5), 0.25% NP-40 and 150 mM NaCl. Akt was eluted with 2x LDS and measured by immunoblotting.
# Chemical cross-linking and mass spectrometry
# LNCaP cells = assay: MTS cell proliferation assay; format: cell-based; conditions: 1 day, 40% confluent
# Procedure: Neuro 2A cells or NIH/3T3 cells (ATCC) were seeded at various confluency in a 96-well plate in 100 µL DMEM containing 5% FBS or 10% FBS with 1% penicillin streptomucin, respectively, at 37 °C in a 5% CO2 and 95% humidity incubator for 18 hr. To each well 1 µL inhibitor with various concentrations or DMSO was added. The final concentrations of the tested inhibitors were 0, 5, 10, 20, 40 and 80 µM for G7 and LY, and 0, 5, 10, 20, 40 and 80 nM for Torin1, based on their respective IC50 values (~µM for G7 and LY and ~ nM for Torin 1). After 24 hr, 20 µL of CellTiter 96® AQueous One Solution Reagent (Promega) were added. The plate was placed in the incubator for 2 h and absorbance at 490 nm was measured with a Synergy HT Microplate Reader (Bio-Tek).
# Fig. S8. Effect of G7 on proliferation of LNCaP cells. Cells that were 40% confluent in RPMI-1640 medium containing 10% FBS were treated with inhibitors for 1 day and subjected to MTS assays. *, µM for both G7 and LY and nM for Torin1. Data represent means ± SEM (n=3). G7, 4-phenylquinolin-2(1H)-one, LY, LY294002.
# ERK5 = assay: KINOMEscan; conditions: 50000 nM
# Procedure: KINOMEscan™ selectivity screen
# (§1) Briefly, Kinase-tagged T7 phage strains were grown in parallel in an E. coli host derived from the BL21 strain. E. coli were grown to log-phase and infected with T7 phage from a frozen stock and incubated with shaking at 32°C until lysis (90-150 minutes). The kinases were produced in HEK-293 cells and subsequently tagged with DNA for qPCR detection. Streptavidin-coated magnetic beads were treated with biotinylated small molecule ligands to generate affinity resins for kinase
# (§2) inhibitor or DMSO control was performed in polypropylene 384-well plates for 1 hr at room temperature. After wash with PBS buffer containing 0.05% Tween 20, the beads were incubated in elution buffer (PBS containing 0.05 % Tween 20 and 0.5 μM non-biotinylated affinity ligand) for 30 minutes at room temperature. The kinase concentration in the eluates was measured by qPCR.
# RIPK1 = assay: KINOMEscan; conditions: 50000 nM
# Procedure: KINOMEscan™ selectivity screen
# (§3) The assay was perfor med at DiscoveRx Corporation according the methods published previously5. Briefly, Kinase-tagged T7 phage strains were grown in parallel in an E. coli host derived from the BL21 strain. E. coli were grown to log-phase and infected with T7 phage from a frozen stock and incubated with shaking at 32°C until lysis (90-150 minutes). The kinases were produced in HEK-293 cells and subsequently tagged with DNA for qPCR detection. Streptavidin-coated magnetic beads were treated with biotinylated small molecule ligands to generate affinity resins for kinase
# as §2
# YANK1 = assay: KINOMEscan; conditions: 50000 nM
# Procedure: KINOMEscan™ selectivity screen
# as §1, §2
# WNK3 = assay: KINOMEscan; conditions: 50000 nM
# Procedure: KINOMEscan™ selectivity screen
# as §3, §2
# WNK1 = assay: KINOMEscan; conditions: 50000 nM
# Procedure: KINOMEscan™ selectivity screen
# as §3, §2
# PIK3CA(I800L) = assay: KINOMEscan; conditions: 50000 nM
# Procedure: KINOMEscan™ selectivity screen
# as §3, §2
# AURKB = assay: KINOMEscan; conditions: 50000 nM
# Procedure: KINOMEscan™ selectivity screen
# as §3, §2
# EPHB1 = assay: KINOMEscan; conditions: 50000 nM
# Procedure: KINOMEscan™ selectivity screen
# as §1, §2
# GRK2 = assay: KINOMEscan; conditions: 50000 nM
# Procedure: KINOMEscan™ selectivity screen
# as §1, §2
# PHKG2 = assay: KINOMEscan; conditions: 50000 nM
# Procedure: KINOMEscan™ selectivity screen
# as §1, §2
# CDKL3 = assay: KINOMEscan; conditions: 50000 nM
# Procedure: KINOMEscan™ selectivity screen
# as §1, §2
# EPHA6 = assay: KINOMEscan; conditions: 50000 nM
# Procedure: KINOMEscan™ selectivity screen
# as §1, §2
# MARK4 = assay: KINOMEscan; conditions: 50000 nM
# Procedure: KINOMEscan™ selectivity screen
# as §3, §2
# DDR2 = assay: KINOMEscan; conditions: 50000 nM
# Procedure: KINOMEscan™ selectivity screen
# as §3, §2
# DRAK2 = assay: KINOMEscan; conditions: 50000 nM
# Procedure: KINOMEscan™ selectivity screen
# as §3, §2
# JNK3 = assay: KINOMEscan; conditions: 50000 nM
# Procedure: KINOMEscan™ selectivity screen
# as §3, §2
# BRAF = assay: KINOMEscan; conditions: 50000 nM
# Procedure: KINOMEscan™ selectivity screen
# as §3, §2
# PIK3CA(Q546K) = assay: KINOMEscan; conditions: 50000 nM
# Procedure: KINOMEscan™ selectivity screen
# as §1, §2
# BMPR2 = assay: KINOMEscan; conditions: 50000 nM
# Procedure: KINOMEscan™ selectivity screen
# as §3, §2
# MLK1 = assay: KINOMEscan; conditions: 50000 nM
# Procedure: KINOMEscan™ selectivity screen
# as §3, §2
# MAPKAPK5 = assay: KINOMEscan; conditions: 50000 nM
# Procedure: KINOMEscan™ selectivity screen
# as §3, §2
# NEK7 = assay: KINOMEscan; conditions: 50000 nM
# Procedure: KINOMEscan™ selectivity screen
# as §3, §2
# FLT3(R834Q) = assay: KINOMEscan; conditions: 50000 nM
# Procedure: KINOMEscan™ selectivity screen
# (§4) The assay was perfor med at DiscoveRx Corporation according the methods published previously5. […] The kinases were produced in HEK-293 cells and subsequently tagged with DNA for qPCR detection. Streptavidin-coated magnetic beads were treated with biotinylated small molecule ligands to generate affinity resins for kinase
# as §2
# MST2 = assay: KINOMEscan; conditions: 50000 nM
# Procedure: KINOMEscan™ selectivity screen
# as §4, §2
# ULK2 = assay: KINOMEscan; conditions: 50000 nM
# Procedure: KINOMEscan™ selectivity screen
# as §3, §2
# PRKG1 = assay: KINOMEscan; conditions: 50000 nM
# Procedure: KINOMEscan™ selectivity screen
# as §3, §2
# ERN1 = assay: KINOMEscan; conditions: 50000 nM
# Procedure: KINOMEscan™ selectivity screen
# as §1, §2
# IRAK4 = assay: KINOMEscan; conditions: 50000 nM
# Procedure: KINOMEscan™ selectivity screen
# as §1, §2
# AURKC = assay: KINOMEscan; conditions: 50000 nM
# Procedure: KINOMEscan™ selectivity screen
# as §3, §2
# HASPIN = assay: KINOMEscan; conditions: 50000 nM
# Procedure: KINOMEscan™ selectivity screen
# as §3, §2
# KIT(V559D,V654A) = assay: KINOMEscan; conditions: 50000 nM
# Procedure: KINOMEscan™ selectivity screen
# as §3, §2
# PIP5K1C = assay: KINOMEscan; conditions: 50000 nM
# Procedure: KINOMEscan™ selectivity screen
# as §3, §2
# AXL = assay: KINOMEscan; conditions: 50000 nM
# Procedure: KINOMEscan™ selectivity screen
# as §3, §2
# PDGFRB = assay: KINOMEscan; conditions: 50000 nM
# Procedure: KINOMEscan™ selectivity screen
# as §1, §2
smiles,measurement,setting,value
"Oc1cc(-c2ccccc2)c2ccccc2n1 [G7, 4-phenylquinolin-2(1H)-one]",effect on the Akt-PIP3 association,Akt-PIP3 association,insignificant effect
same,proliferation of LNCaP prostate cancer cells,LNCaP cells,inhibited the proliferation
same,Percent Control,ERK5,100%
same,Percent Control,RIPK1,100%
same,Percent Control,YANK1,100%
same,Percent Control,WNK3,98%
same,Percent Control,WNK1,97%
same,Percent Control,PIK3CA(I800L),95%
same,Percent Control,AURKB,91%
same,Percent Control,EPHB1,91%
same,Percent Control,GRK2,91%
same,Percent Control,PHKG2,91%
same,Percent Control,CDKL3,89%
same,Percent Control,EPHA6,88%
same,Percent Control,MARK4,88%
same,Percent Control,DDR2,87%
same,Percent Control,DRAK2,86%
same,Percent Control,JNK3,86%
same,Percent Control,BRAF,84%
same,Percent Control,PIK3CA(Q546K),83%
same,Percent Control,BMPR2,82%
same,Percent Control,MLK1,82%
same,Percent Control,MAPKAPK5,81%
same,Percent Control,NEK7,78%
same,Percent Control,FLT3(R834Q),76%
same,Percent Control,MST2,76%
same,Percent Control,ULK2,76%
same,Percent Control,PRKG1,70%
same,Percent Control,ERN1,69%
same,Percent Control,IRAK4,68%
same,Percent Control,AURKC,66%
same,Percent Control,HASPIN,57%
same,Percent Control,"KIT(V559D,V654A)",48%
same,Percent Control,PIP5K1C,44%
same,Percent Control,AXL,42%
same,Percent Control,PDGFRB,23%
